From patent publication US20140303164A1, “THERAPEUTIC COMPOUNDS” (Gilead Sciences, Inc., priority 2013, published 2014) come the findings set out here.

Data set [1] in a line: Test B: Cytotoxicity Assay. In kind it is cell-based. To be noted: human, uninfected MT-4 cells, same protocol as Test A. In short, it runs like this:
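Uninfected MT-4 cells (2000 per well) incubated with diluted compound at 37° C. for 5 days, following the antiviral protocol without HIV-IIIb.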

Data set [2] relates to HIV-IIIb. Briefly: Test A: Antiviral Assay in MT4 Cells. In kind it is cell-based, HIV-1. The note with it: Human immunodeficiency virus 1, IIIB, MT4, 120 h; for inhibition at 0.2 µM: read-out: % inhibition at 0.2 μM; for inhibition at 2 µM: read-out: % inhibition at 2 μM. Here is the method:
Test A: Antiviral Assay in MT4 Cells
MT-4 cells were next mixed with HIV-IIIb at an m.o.i of 0.003 for 1 hour, after which time 35 μL of virus/cell mixture (2000 cells) was immediately added to each well containing 40 μL of diluted compound. The plates were then incubated at 37° C. for 5 days. […] Cell lysis was carried out by incubating at room temperature for 10 min and then chemiluminescence was read.

What is called CC50 is the concentration at which the toxic effect on the cells reaches its halfway point. Higher therefore signals lower toxicity to the cells. One may read the inhibition as the percentage by which the read-out fell short of the control. Take `CCNc1nn(C)c2c(-c3ccc(C#CC(C)(C)O)nc3[C@H](Cc3cc(F)cc(F)c3)NC(=O)Cn3nc(C(F)F)c4c3C(F)(F)[C@@H]3C[C@H]43)ccc(Cl)c12` [Compound 91E, N—((S)-1-(3-(4-chloro-3-(ethylamino)-1-methyl-1H-indazol-7-yl)-6-(3-hydroxy-3-methylbut-1-yn-1-yl)pyridin-2-yl)-2-(3,5-difluorophenyl)ethyl)-2-((3b-S,4aR)-3-(difluoromethyl)-5,5-difluoro-3b,4,4a,5-tetrahydro-1H-cyclopropa[3,4]cyclopenta[1,2-c]pyrazol-1-yl)acetamide]: in data set [1], the half-maximal cytotoxic concentration (CC50) at 5 days came to 9.38 µM. Moreover, in data set [2], the inhibition at 0.2 µM was 100% and the inhibition at 2 µM stood at 100%.
Regarding `CNC(=O)c1nn(CC(=O)N[C@@H](Cc2cc(F)cc(F)c2)c2nc(C#CC(C)(C)O)ccc2-c2ccc(Cl)c3c(NS(C)(=O)=O)nn(C)c23)c2c1[C@H]1C[C@H]1C2(F)F` [Compound 165, (3bS,4aR)-1-(2-(((S)-1-(3-(4-chloro-1-methyl-3-(methylsulfonamido)-1H-indazol-7-yl)-6-(3-hydroxy-3-methylbut-1-yn-1-yl)pyridin-2-yl)-2-(3,5-difluorophenyl)ethyl)amino)-2-oxoethyl)-5,5-difluoro-N-methyl-3b,4,4a,5-tetrahydro-1H-cyclopropa[3,4]cyclopenta[1,2-c]pyrazole-3-carboxamide], the CC50 at 5 days in data set [1] was found to be 5.46 µM. In addition, in data set [2], the inhibition at 0.2 µM was 72% and the inhibition at 2 µM was found to be 72%.
As for `COc1cc(-c2ccc(Cl)c3c(NS(C)(=O)=O)nn(C)c23)c([C@H](Cc2cc(F)cc(F)c2)NC(=O)Cn2nc(C(F)F)c3c2C(F)(F)[C@@H]2C[C@H]32)nc1C#CC(C)(C)O` [Compound 139B, N—((S)-1-(3-(4-chloro-1-methyl-3-(methylsulfonamido)-1H-indazol-7-yl)-6-(3-hydroxy-3-methylbut-1-yn-1-yl)-5-methoxypyridin-2-yl)-2-(3,5-difluorophenyl)ethyl)-2-((3b-S,4aR)-3-(difluoromethyl)-5,5-difluoro-3b,4,4a,5-tetrahydro-1H-cyclopropa[3,4]cyclopenta[1,2-c]pyrazol-1-yl)acetamide], the CC50 at 5 days in data set [1] came to 15.4 µM. In data set [2], the inhibition at 0.2 µM was found to be 94% and the inhibition at 2 µM worked out at 94%.
On to `Cn1nc(NS(C)(=O)=O)c2c(Cl)ccc(-c3ccc(C#CC(C)(C)O)nc3[C@H](Cc3cc(F)cc(F)c3)NC(=O)Cn3nc4c(c3Cl)[C@H]3C[C@H]3C4(F)F)c21` [Compound 140M, N—((S)-1-(3-(4-chloro-1-methyl-3-(methylsulfonamido)-1H-indazol-7-yl)-6-(3-hydroxy-3-methylbut-1-yn-1-yl)pyridin-2-yl)-2-(3,5-difluorophenyl)ethyl)-2-((3b-S,4aR)-3-chloro-5,5-difluoro-3b,4,4a,5-tetrahydro-2H-cyclopropa[3,4]cyclopenta[1,2-c]pyrazol-2-yl)acetamide], for which it took 20.4 µM to reach half-maximal cytotoxicity in data set [1] (CC50 at 5 days). Moreover, in data set [2], the inhibition at 0.2 µM amounted to 98% and the inhibition at 2 µM stood at 98%.
In data set [1], `Cc1[nH]c2ccc(O)cc2c1CC(=O)N[C@@H](Cc1cc(F)cc(F)c1)c1nc(C#CC(C)(C)O)ccc1-c1ccc(Cl)c2c(NS(C)(=O)=O)nn(C)c12` [Compound 192, (S)—N-(1-(3-(4 chloro-1-methyl-3-(methylsulfonamido)-1H-indazol-7-yl)-6-(3-hydroxy-3-methylbut-1-yn-1-yl)pyridin-2-yl)-2-(3,5-difluorophenyl)ethyl)-2-(5-hydroxy-2-methyl-1H-indol-3-yl)acetamide] came in with a half-maximal cytotoxic concentration (CC50) at 5 days of 28.8 µM. Further, in data set [2], the inhibition at 0.2 µM is 95% and the inhibition at 2 µM amounted to 98%.
The matching figures for `CC(C)(O)C#Cc1ccc(-c2ccc(Cl)c(C(N)=O)c2)c([C@H](Cc2cc(F)cc(F)c2)NC(=O)Cn2nc(C(F)(F)F)c3c2C(F)(F)[C@@H]2C[C@H]32)n1` [Compound 80, 2-chloro-5-(2-((S)-1-(2-((3bS,4aR)-5,5-difluoro-3-(trifluoromethyl)-3b,4,4a,5-tetrahydro-1H-cyclopropa[3,4]cyclopenta[1,2-c]pyrazol-1-yl)acetamido)-2-(3,5-difluorophenyl)ethyl)-6-(3-hydroxy-3-methylbut-1-yn-1-yl)pyridin-3-yl)benzamide]: 8.58 µM, 96% and 100%.
The matching figures for `Cn1nc(NS(C)(=O)=O)c2c(Cl)ccc(-c3ccc(C#CC(C)(C)O)nc3[C@H](Cc3cc(F)cc(F)c3)NC(=O)Cc3ccc4ccccc4c3)c21` [Compound 200, (S)—N-(1-(3-(4 chloro-1-methyl-3-(methylsulfonamido)-1H-indazol-7-yl)-6-(3-hydroxy-3-methylbut-1-yn-1-yl)pyridin-2-yl)-2-(3,5-difluorophenyl)ethyl)-2-(naphthalen-2-yl)acetamide]: 12.2 µM, 89% and 90%.
Take `Cn1cc(S(=O)(=O)Nc2nn(C)c3c(-c4ccc(C#CC(C)(C)O)nc4[C@H](Cc4cc(F)cc(F)c4)NC(=O)Cn4nc(C(F)(F)F)c5c4C(F)(F)[C@@H]4C[C@H]54)cccc23)cn1` [Compound 48, 2-((3bS,4aR)-5,5-difluoro-3-(trifluoromethyl)-3b,4,4a,5-tetrahydro-1H-cyclopropa[3,4]cyclopenta[1,2-c]pyrazol-1-yl)-N—((S)-2-(3,5-difluorophenyl)-1-(6-(3-hydroxy-3-methylbut-1-yn-1-yl)-3-(1-methyl-3-(1-methyl-1H-pyrazole-4-sulfonamido)-1H-indazol-7-yl)pyridin-2-yl)ethyl)acetamide]: in data set [1], the cytotoxic concentration (CC50) at 5 days is 24 µM. In data set [2], the inhibition at 0.2 µM was found to be 88% and the inhibition at 2 µM was 88%.
On to `CC(C)(O)C#Cc1ncc(-c2ccc3c(c2)C(=O)NC3)c([C@H](Cc2cc(F)cc(F)c2)NC(=O)Cn2nc(C(F)F)c3c2C(F)(F)CCC3(F)F)n1` [Compound 21H, (S)-2-(3-(difluoromethyl)-4,4,7,7-tetrafluoro-4,5,6,7-tetrahydro-1H-indazol-1-yl)-N-(2-(3,5-difluorophenyl)-1-(2-(3-hydroxy-3-methylbut-1-yn-1-yl)-5-(3-oxoisoindolin-5-yl)pyrimidin-4-yl)ethyl)acetamide], for which, in data set [1], the CC50 at 5 days stood at 7.63 µM. For the same compound, in data set [2], the inhibition at 0.2 µM was found to be 92% and the inhibition at 2 µM worked out at 92%.
Compound `CC(C)(O)C#Cc1ccc(-c2cnc3[nH]ccc3c2F)c([C@H](Cc2cc(F)cc(F)c2)NC(=O)Cn2nc(C(F)(F)F)c3c2C(F)(F)[C@@H]2C[C@H]32)n1` [Compound 36C, 2-((3bS,4aR)-5,5-difluoro-3-(trifluoromethyl)-3b,4,4a,5-tetrahydro-1H-cyclopropa[3,4]cyclopenta[1,2-c]pyrazol-1-yl)-N—((S)-2-(3,5-difluorophenyl)-1-(3-(4-fluoro-1H-pyrrolo[2,3-b]pyridin-5-yl)-6-(3-hydroxy-3-methylbut-1-yn-1-yl)pyridin-2-yl)ethyl)acetamide] had a CC50 at 5 days in data set [1] of 3.15 µM. Besides, in data set [2], the inhibition at 0.2 µM was 88% and the inhibition at 2 µM came out at 92%.
For `CCOC(=O)c1nn(CC(=O)N[C@@H](Cc2cc(F)cc(F)c2)c2nc(C#CC(C)(C)O)ccc2-c2ccc(Cl)c3c(NS(C)(=O)=O)nn(C)c23)c2c1[C@H]1C[C@H]1C2(F)F` [Compound 158G, (3bS,4aR)-ethyl 1-(2-(((S)-1-(3-(4-chloro-1-methyl-3-(methylsulfonamido)-1H-indazol-7-yl)-6-(3-hydroxy-3-methylbut-1-yn-1-yl)pyridin-2-yl)-2-(3,5-difluorophenyl)ethyl)amino)-2-oxoethyl)-5,5-difluoro-3b,4,4a,5-tetrahydro-1H-cyclopropa[3,4]cyclopenta[1,2-c]pyrazole-3-carboxylate], in that order: 26.7 µM, 71% and 71%.
The matching figures for `Cn1nc(NS(C)(=O)=O)c2c(Cl)ccc(-c3ccc(-c4cnn(C(C)(C)C)c4)nc3[C@H](Cc3cc(F)cc(F)c3)NC(=O)Cn3nc(C(F)F)c4c3C(F)(F)[C@@H]3C[C@H]43)c21` [Compound 168B, N—((S)-1-(6-(1-(tert-butyl)-1H-pyrazol-4-yl)-3-(4-chloro-1-methyl-3-(methylsulfonamido)-1H-indazol-7-yl)pyridin-2-yl)-2-(3,5-difluorophenyl)ethyl)-2-((3b-S,4aR)-3-(difluoromethyl)-5,5-difluoro-3b,4,4a,5-tetrahydro-1H-cyclopropa[3,4]cyclopenta[1,2-c]pyrazol-1-yl)acetamide]: over 53.2 µM, 90% and 90%.
Compound `Cn1nc(NS(C)(=O)=O)c2c(Cl)ccc(-c3ccc(C#CC(C)(C)O)nc3[C@H](Cc3cc(F)cc(F)c3)NC(=O)Cn3nc(I)c4c3C(F)(F)[C@@H]3C[C@H]43)c21` [Compound 160, N—((S)-1-(3-(4-chloro-1-methyl-3-(methylsulfonamido)-1H-indazol-7-yl)-6-(3-hydroxy-3-methylbut-1-yn-1-yl)pyridin-2-yl)-2-(3,5-difluorophenyl)ethyl)-2-((3bS,4aR)-5,5-difluoro-3-iodo-3b,4,4a,5-tetrahydro-1H-cyclopropa[3,4]cyclopenta[1,2-c]pyrazol-1-yl)acetamide] yielded a cytotoxic concentration (CC50) at 5 days in data set [1] of 20.5 µM. In addition, in data set [2], the inhibition at 0.2 µM was 100% and the inhibition at 2 µM turned out to be 100%.
